Assay results reported in patent US20220241331A1, “IDENTIFICATION OF RECURRENT MUTATED NEOPEPTIDES” (Yeda Research and Development Co. Ltd., priority 2019, published 2022).
Each block holds one molecule with its values, some of them ahead of it.

Key:
17TIL = assay: IFNγ release ELISA, 17TIL co-incubated with peptide-pulsed A*01:01 B-cells; assay type: cell-based, human; conditions: for IFN-γ release from TIL stimulated by pulsed peptide: peptide-pulsed A*01:01 EBV-transformed B cells, overnight co-incubation, vs non-pulsed B-cell control (FIG. 3A); for TIL IFNγ response in peptide titration: titrated concentrations of pulsed peptide (FIG. 3B)
Procedure: (§1) IFNγ's release from TIL, as measured in an enzyme-linked immunosorbent assay (ELISA), was used to quantify reactivity. Synthetic pure (>95% purity) mutant ([…] (SEQ ID NO: 1)) and wild-type ([…] (SEQ ID NO: 2)) peptides were purchased from GenScript and dissolved in DMSO.
(§2) EBV-transformed B-cells bearing HLA allele A*01:01 were used for peptide pulsing. A B-cell suspension at 1×10^6 cells/ml was incubated with the peptide of choice, at the desired concentration (0.001-10 μg/ml), for 4 h in a 37° C., 5% CO2, humidified incubator. The DMSO volume was kept at 1% in all samples. For the no-peptide control, DMSO devoid of peptides was added. The B-cells were washed in PBS three times before proceeding to the co-incubation with TILs. TILs were co-cultured with either cognate melanoma or EBV-transformed B-cells at a 1:1 ratio (10^5-2×10^6 cells) and incubated overnight in a 37° C., 5% CO2, humidified incubator. The soluble IFNγ secreted from TILs was quantified from the co-culture supernatant using Biolegend Human IFN-γ ELISA MAX Deluxe (Cat#430106). All experiments were conducted in biological triplicates.
(§3) To evaluate the immunogenicity of the NRAS.Q61K neo-antigen, two melanoma cell lines that harbor the HLA-A*01:01/NRAS.Q61K combination, 17T and 135T were analyzed. Synthetic mutant (ILDTAG ? EEY-SEQ ID NO: 1) or wild-type (ILDTAG ? EEY-SEQ ID NO: 2) peptide was pulsed on either one of three commercial, A*01:01 expressing, Epstein bar virus (EBV)-transformed B cells^35. No other HLA class-I allele was shared among all three B-cell lines, and no other HLA class-I allele expressed by these cell lines was predicted to bind the neo-peptide at hand (Table 2).
(§4) The peptide-pulsed B-cells were co-incubated with either 17TIL or 135TIL overnight, followed by measurement of peptide stimulated interferon-γ (IFN-γ) release from the TIL by means of enzyme-linked immunosorbent assay (ELISA). […] Peptide titration assays further confirmed specific TIL reactivity towards the HLA-A*01:01/NRAS.Q61K neo-antigen, for both 17TIL and 135TIL (FIG. 3B).

135TIL = assay: IFNγ release ELISA, 135TIL co-incubated with peptide-pulsed A*01:01 B-cells; assay type: cell-based, human; conditions: for IFN-γ release from TIL stimulated by pulsed peptide: peptide-pulsed A*01:01 EBV-transformed B cells, overnight co-incubation, vs non-pulsed B-cell control (FIG. 3A); for TIL IFNγ response in peptide titration: titrated concentrations of pulsed peptide (FIG. 3B)
Procedure: as §1, §2, §3, §4

[1] = target: T1, NRAS Q61K (RAS.Q61K) peptide on HLA-A*01:01 (human); assay: cytokine release
T1 peptide: ILDTAGKEEY
Procedure: (§5) Peripheral mononuclear cells (PBMC) from healthy donors were electroporated with in-vitro transcribed mRNA, coding for TCRα/TCRβ combinations of interest. […] (A) Flow cytometry plots for electroporated PBMC. Top row—mouse TCRβ constant region staining. Bottom row—[sequence]/A*01:01 tetramer staining. Cells were stained at 6-30 hours post electroporation. (B) IFNγ release from electroporated donor PBMC as measured in ELISA. A*01:01+ B-LCL IHW01161 was pulsed with either wild-type or mutant versions of the peptide at 10 μM prior to overnight co-incubation with electroporated PBMC. Supernatants were diluted 1:20 prior to assay performance to avoid saturation.

[2] = target: T1, NRAS Q61K (RAS.Q61K) peptide on …; assay: multimer staining
Procedure: as §5

[3] = target: T2, RAS wild-type (NRAS) peptide on HLA-A*01:01 (human); assay: cytokine release
T2 peptide: ILDTAGQEEY
Procedure: as §5

Molecule: ILDTAGKEEY [RAS.Q61-derived neo-peptide, variant Q61K; presented on HLA-A*01:01]
- minimum peptide concentration with significant IFNγ response (17TIL; peptide titration (FIG. 3B)): 10 ng/mL
- IFN-γ release from TIL stimulated by pulsed peptide (17TIL): stimulated a clear interferon-γ (IFN-γ) signal
- TIL IFNγ response in peptide titration (17TIL): clear dose-response relationship
- minimum peptide concentration with significant IFNγ response (135TIL; peptide titration (FIG. 3B)): 1 ng/mL
- IFN-γ release from TIL stimulated by pulsed peptide (135TIL): stimulated a clear interferon-γ (IFN-γ) signal
- TIL IFNγ response in peptide titration (135TIL): clear dose-response relationship

Molecule: ILDTAGQEEY [WT RAS.Q61-derived peptide, reference compound]
- IFN-γ release from TIL stimulated by pulsed peptide (17TIL): did not elicit significant increase over a non-pulsed B-cell control
- TIL IFNγ response in peptide titration (17TIL): non-significant and did not depend on peptide concentration
- IFN-γ release from TIL stimulated by pulsed peptide (135TIL): did not elicit significant increase over a non-pulsed B-cell control
- TIL IFNγ response in peptide titration (135TIL): non-significant and did not depend on peptide concentration

- binding result [1]: recognises
B1: NA135.1/NB17.3 (TCR)
alpha TRAV19 TRAJ39 CDR3: CALSESHNNAGNMLTF
beta TRBV6-1 TRBJ1-1 CDR3: CAEGENTEAFF

- binding result [2]: recognises
- binding result [3]: no recognition
B2: N135.1 (TCR)
alpha TRAV19 TRAJ39 CDR3: CALSESHNNAGNMLTF
beta TRBV6-1 TRBJ1-1 CDR3: CAASQNTEAFF

- binding result [2]: recognises
- binding result [3]: no recognition
B3: N17.3 (TCR)
alpha TRAV19 TRAJ17 CDR3: CALSESGDAAGNKLTF
beta TRBV6-1 TRBJ1-1 CDR3: CAEGENTEAFF

- binding result [2]: recognises
- binding result [3]: no recognition
B4: N17.2 (TCR)
alpha TRAV5 TRAJ9 CDR3: CAESSGGGFKTIF
beta TRBV6-6 TRBJ2-7 CDR3: CASSTPGPSAYEQYF
